Target: T1, glucocerebrosidase (Gcase) (Homo sapiens, UniProt P04062)
T1 construct: micellar solution containing 10 nM GCase and 100 nM saposin C
T1 sequence (P04062 40-536): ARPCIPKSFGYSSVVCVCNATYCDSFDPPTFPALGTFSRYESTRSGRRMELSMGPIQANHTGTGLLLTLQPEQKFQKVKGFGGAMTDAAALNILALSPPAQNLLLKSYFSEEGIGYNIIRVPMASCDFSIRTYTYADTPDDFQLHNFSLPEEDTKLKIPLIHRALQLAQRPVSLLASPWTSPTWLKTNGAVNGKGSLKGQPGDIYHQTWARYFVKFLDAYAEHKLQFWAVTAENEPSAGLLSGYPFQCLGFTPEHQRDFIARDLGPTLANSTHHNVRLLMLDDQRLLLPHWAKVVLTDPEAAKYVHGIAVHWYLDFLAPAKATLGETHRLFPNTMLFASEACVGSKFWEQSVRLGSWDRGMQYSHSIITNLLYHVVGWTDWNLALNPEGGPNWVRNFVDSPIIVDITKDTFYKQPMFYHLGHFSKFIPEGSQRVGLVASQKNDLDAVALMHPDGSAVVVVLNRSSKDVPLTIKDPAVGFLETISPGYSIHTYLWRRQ
Experiment: Glucocerebrosidase (Gcase) activation assay with 4-methylumbelliferyl-beta-D-glucopyranoside substrate, saposin C and phosphatidylserine/triton micelles, fluorescence readout
Assay type: biochemical
Experimental: The ability of exemplary compounds to activate glucocerebrosidase (Gcase) was measured.
A 484 μL aliquot of a 1.0 mg/mL solution of phosphatidylserine (PS) (Sigma P7769) in chloroform was evaporated under a stream of nitrogen for 1 hour. The lipid film was dissolved over 4 minutes of vigorous vortexing in 40 mL of 176 mM K2HPO4/50 mM citric acid (pH 4.7) containing 7.5 μL of triton X-100, resulting in a mixed micellar preparation with a composition of 0.32 mM triton and 0.37 mol % PS. 4-Methylumbelliferyl-beta-D-glucopyranoside (ACROS-337025000) was dissolved in the micellar solution to a final concentration of 2 mM for use as the reaction substrate.
Test compounds were diluted to the desired concentrations with dimethylsulfoxide (DMSO) from 10 mM stocks, and 0.41 μL of the DMSO compound mixture was added to 100 μL of micellar solution containing 10 nM GCase and 100 nM saposin C (Enzo ALX-201-262-C050). Pre-incubation was allowed to occur for 30 minutes at room temperature, after which the reaction was initiated by combining 25 μL of substrate solution with 25 μL of compound/GCase/saposin mixture. The reaction proceeded for 15 minutes at room temperature and was stopped by adding 150 μL of 1M glycine, pH 12.5. The endpoint of the reaction was monitored by measuring fluorescence intensity (excitation: 365 nm; emission: 440 nm) on a SpectraMax i3 instrument (Molecular Devices). Test compounds were screened at 1.0 and 0.1 μM final concentration, and subsequent 8-point dose response curves were obtained using 3-fold dilutions from a maximum final concentration of 5 μM.

SMILES	Percent Gcase Activation, 0.1 μM Test Compound (0.1 μM test compound, Table 3A)	Percent Gcase Activation, 1 μM Test Compound (1 μM test compound, Table 3A)	Percent Gcase Activation, 0.1 μM Test Compound (test compound at 0.1 μM)	Percent Gcase Activation, 1 μM Test Compound (test compound at 1.0 μM)
Cc1cc(-c2cccc(C#N)c2)nc2c(C(=O)NC(C3CC3)C(F)(F)F)cnn12 (stereo not drawn) [III-72]	*** (greater than 20% Gcase activation)	+++ (Gcase activation greater than 60%)	–	–
Cc1cc(-c2cccc(C(N)=O)c2)nc2c(C(=O)NC(C3CC3)C(F)(F)F)cnn12 (stereo not drawn) [III-73]	*** (greater than 20% Gcase activation)	+++ (Gcase activation greater than 60%)	–	–
COCc1cc(-c2cccc(F)c2)nc2c(C(=O)NC(C)(C)C3CC3)cnn12 [III-74]	** (Gcase activation in the range of 10% up to 20%)	+++ (Gcase activation greater than 60%)	–	–
C#CC(C)(C)NC(=O)c1cnn2c(C)cc(-c3cccc(F)c3)nc12 [III-75]	*** (greater than 20% Gcase activation)	+++ (Gcase activation greater than 60%)	–	–
CCOc1cccc(-c2cc(C)n3ncc(C(=O)NC(C)C(F)(F)F)c3n2)c1 (stereo not drawn) [III-76]	*** (greater than 20% Gcase activation)	+++ (Gcase activation greater than 60%)	–	–
Cc1cc(-c2cccc(OC3CC3)c2)nc2c(C(=O)NC(C)C(F)(F)F)cnn12 (stereo not drawn) [III-77]	*** (greater than 20% Gcase activation)	+++ (Gcase activation greater than 60%)	–	–
Cc1cc(NC2CC2)nc2c(C(=O)NC(C3CC3)C3CC3)cnn12 [III-78]	*** (greater than 20% Gcase activation)	+++ (Gcase activation greater than 60%)	–	–
COCc1cc(-c2cccc(OC)c2)nc2c(C(=O)NC(C)(C)C3CC3)cnn12 [III-79]	*** (greater than 20% Gcase activation)	+++ (Gcase activation greater than 60%)	–	–
Cc1cc(-c2cccc(F)c2)nc2c(C(=O)NC(C)(C)C(F)(F)F)cnn12 [III-80]	** (Gcase activation in the range of 10% up to 20%)	+++ (Gcase activation greater than 60%)	–	–
C#CC(C)(C)NC(=O)c1cnn2c(C)cc(-c3cccc(Cl)c3)nc12 [III-81]	*** (greater than 20% Gcase activation)	+++ (Gcase activation greater than 60%)	–	–
C#CC(C)(C)NC(=O)c1cnn2c(C)cc(-c3cccc(OC4CC4)c3)nc12 [III-82]	*** (greater than 20% Gcase activation)	+++ (Gcase activation greater than 60%)	–	–
Cc1cc(-c2ccc3ocnc3c2)nc2c(C(=O)NC(C3CC3)C(F)(F)F)cnn12 (stereo not drawn) [III-83]	*** (greater than 20% Gcase activation)	+++ (Gcase activation greater than 60%)	–	–
Cc1cc(-c2ccc(F)nc2)nc2c(C(=O)NC(C3CC3)C(F)(F)F)cnn12 (stereo not drawn) [III-84]	*** (greater than 20% Gcase activation)	+++ (Gcase activation greater than 60%)	–	–
Cc1cc(-c2cccnc2F)nc2c(C(=O)NC(C3CC3)C(F)(F)F)cnn12 (stereo not drawn) [III-85]	*** (greater than 20% Gcase activation)	+++ (Gcase activation greater than 60%)	–	–
Cc1cc(-c2ccc(F)cc2)nc2c(C(=O)N[C@H](C)C3CC3)cnn12 [III-86]	–	–	** (Gcase activation in the range of 10% up to 20%)	+++ (Gcase activation greater than 60%)
Cc1cc(-c2cccnc2)nc2c(C(=O)N[C@H](C)C3CC3)cnn12 [III-87]	–	–	* (less than 10% Gcase activation)	+ (less than 30% Gcase activation)
Cc1cc(-c2cccnc2)nc2c(C(=O)N[C@H](C3CC3)C(F)(F)F)cnn12 [III-88]	–	–	*** (greater than 20% Gcase activation)	+++ (Gcase activation greater than 60%)
Cc1cc(-c2cccnc2)nc2c(C(=O)N[C@@H](C3CC3)C(F)(F)F)cnn12 [III-89]	–	–	** (Gcase activation in the range of 10% up to 20%)	+++ (Gcase activation greater than 60%)
COc1cccc(-c2cc(C)n3ncc(C(=O)N[C@H](C)C(F)(F)F)c3n2)c1 [III-90]	–	–	*** (greater than 20% Gcase activation)	+++ (Gcase activation greater than 60%)
COc1cccc(-c2cc(C)n3ncc(C(=O)N[C@@H](C)C(F)(F)F)c3n2)c1 [III-91]	–	–	*** (greater than 20% Gcase activation)	+++ (Gcase activation greater than 60%)
Cc1cc(-c2cccc(F)c2)nc2c(C(=O)N[C@H](C)C3CC3)cnn12 [III-92]	–	–	*** (greater than 20% Gcase activation)	+++ (Gcase activation greater than 60%)
Cc1cc(-c2cccc(C#N)c2)nc2c(C(=O)N[C@H](C)C3CC3)cnn12 [III-93]	–	–	** (Gcase activation in the range of 10% up to 20%)	+++ (Gcase activation greater than 60%)
COc1ccc(F)c(-c2cc(C)n3ncc(C(=O)N[C@H](C)C(F)(F)F)c3n2)c1 [III-97]	–	–	** (Gcase activation in the range of 10% up to 20%)	+++ (Gcase activation greater than 60%)
C#CC(NC(=O)c1cnn2c(C)cc(-c3cccc(Cl)c3)nc12)C(F)(F)F (stereo not drawn) [III-99]	–	–	*** (greater than 20% Gcase activation)	++ (Gcase activation in the range of 30% up to 60%)

Next, values leading:

Percent Gcase Activation, 0.1 μM Test Compound (0.1 μM test compound, Table 3A)	Percent Gcase Activation, 1 μM Test Compound (1 μM test compound, Table 3A)	Percent Gcase Activation, 0.1 μM Test Compound (test compound at 0.1 μM)	Percent Gcase Activation, 1 μM Test Compound (test compound at 1.0 μM)	SMILES
–	–	*** (greater than 20% Gcase activation)	+++ (Gcase activation greater than 60%)	Cc1cc(N2CCCC(F)(F)C2)nc2c(C(=O)N[C@H](C3CC3)C(F)(F)F)cnn12 [III-94]
–	–	*** (greater than 20% Gcase activation)	+++ (Gcase activation greater than 60%)	Cc1cc(N2CCCC(F)(F)C2)nc2c(C(=O)N[C@@H](C3CC3)C(F)(F)F)cnn12 [III-95]
–	–	*** (greater than 20% Gcase activation)	+++ (Gcase activation greater than 60%)	C#CC(NC(=O)c1cnn2c(C)cc(-c3cccc(OC)c3)nc12)C(F)(F)F (stereo not drawn) [III-96]
–	–	*** (greater than 20% Gcase activation)	+++ (Gcase activation greater than 60%)	COc1ccc(F)c(-c2cc(C)n3ncc(C(=O)N[C@@H](C)C(F)(F)F)c3n2)c1 [III-98]
–	–	*** (greater than 20% Gcase activation)	+++ (Gcase activation greater than 60%)	Cc1cc(-c2ccns2)nc2c(C(=O)N[C@H](C3CC3)C(F)(F)F)cnn12 [III-100]
–	–	*** (greater than 20% Gcase activation)	+++ (Gcase activation greater than 60%)	Cc1cc(-c2ccns2)nc2c(C(=O)N[C@@H](C3CC3)C(F)(F)F)cnn12 [III-101]

Source: patent US10934298B2, “Substituted pyrazolo[1,5-a]pyrimidines for the treatment of medical disorders” (BIAL—BioTech Investments, Inc., priority 2016, dated 2021)
